US10494610B2, “Three dimensional matrix for cancer stem cells” (UNIVERSITY OF SOUTH CAROLINA, priority 2013, dated 2019)
“Also recorded” adds a separate entry of the source. No end group written: not given here.

Columns and labels:
[1] = tested on: 4T1 mouse breast carcinoma cells; assay: Tumorsphere formation, size and cell number of cells encapsulated in the gel; assay type: cell-based; settings: 9 days; for tumorsphere formation: 4T1 in 5 kPa PEGDA gel with peptide conjugated (conj) or dissolved (dis); for cell number density compared with the gel without peptide: 4T1 in PEGDA gel with peptide conjugated (conj) or dissolved (dis)
Procedure: 4T1 and MCF7 tumor cells were cultured in RMPI-1640 medium with 10% FBS under 5% CO2 at 37° C. Cells were trypsinized after reaching 70% confluency. PEGDA macromer was dissolved in PBS and sterilized by filtration with a 0.2 μm filter. Next, 1.4×10^5/mL 4T1 or MCF7 cells suspended in PBS were added to the macromer solution with final PEGDA concentrations ranging 5-25 wt % and mixed gently with a pre-sterilized glass rod. The cell-suspended hydrogel precursor solution was crosslinked with UV for 10 min. After crosslinking, the gel was cut into disks and incubated in stem cell culture medium in ultra-low attachment tissue culture plates under 5% CO2. The stem cell medium consisted of DMEM-F12 supplemented with 0.4% bovine serum albumin (BSA), 5 μg/mL insulin, 40 ng/mL basic fibroblast growth factor (bFGF), 20 ng/mL EGF, 5% horse serum, 100 U/mL penicillin, and 100 μg/mL streptomycin.
To determine cell viability, gels were stained with cAM/EthD live/dead dyes 2 days after encapsulation to image live and dead cells, respectively. Stained samples were imaged with an inverted fluorescent microscope (Nikon Eclipse Ti-ε, Nikon, Melville, N.Y.). Cell viability was quantified by dividing the image into smaller squares and counting the number of live and dead cells. At each time point, the gel samples were removed from the culture media and stained for imaging. Samples were rinsed twice with PBS and fixed with 4% paraformaldehyde for 3 h. After fixation, cells were permeabilized using PBS containing 0.1% Triton X-100 for 5 min. After rinsing, cells were incubated with Alexa 488 phalloidin (1:200 dilution) and DAPI (1:5000 dilution) to stain actin filaments of the cell cytoskeleton and cell nuclei, respectively. Stained samples were imaged with a Nikon Eclipse Ti-ε inverted fluorescent microscope. For visualization of cell uniformity, a confocal fluorescent microscope (Zeiss LSM-510 META Axiovert, Carl Zeiss, Germany) was used to obtain 2D images (90 μm thick layers) of the stained gels in the direction of thickness. For determination of cell number, the gel samples were homogenized, cells were lysed, and aliquots were used to measure the double stranded DNA (dsDNA) content using a Quant-it PicoGreen assay. Briefly, an aliquot (100 μL) of the working solution was added to 100 μL of the cell lysate and incubated for 4 min at ambient conditions. The fluorescence of the solution was measured with a plate reader (Synergy HT, Bio-Tek, Winooski, Vt.) at emission and excitation wavelength of […], respectively. Measured fluorescent intensities were correlated to cell numbers using a calibration curve constructed with 4T1 or MCF7 cells of known concentration ranging from zero to […].
The tumor cells were cultured in RMPI-1640 medium with 10% FBS under 5% CO2 at 37° C. Cells were trypsinized after reaching 70% confluency. The synthesized acrylamide-terminated peptides were added to the PEGDA macromer solution and the mixture was sterilized by filtration (220 nm filter). Next, 1.4×10^5/ml cells (4T1, MCF7, or MCF10a) were added to the macromer solution and mixed gently with a pre-sterilized glass rod. The cell-suspended hydrogel precursor solution was crosslinked with UV for 10 min as described above. After cross-linking, the gel was cut into disks and incubated in stem cell culture medium on ultra-low attachment tissue culture plates under 5% CO2. The stem cell medium consisted of DMEM-F12 supplemented with 0.4% BSA, 5 μg/ml insulin, 40 ng/ml bFGF, 20 ng/ml EGF, 5% horse serum, 100 U/ml penicillin, and 100 μg/ml streptomycin. For growing tumorspheres in suspension, trypsinized cells (4T1 or MCF7) were cultured on ultra-low attachment tissue culture plates with stem cell culture medium under 5% CO2 at 37° C.
To determine cell viability, gels were stained with cAM and EthD dyes after cell encapsulation to image live and dead cells, respectively. […]

4T1 cells [2] = assay: RT-qPCR mRNA expression of CSC related markers in encapsulated cells; assay type: cell-based, mouse; settings: for CD44 mRNA marker expression / ABCG2 mRNA marker expression / CD24 mRNA marker expression / SCA1 mRNA marker expression: 4T1 in PEGDA gel with peptide; for EGFR mRNA marker expression: 4T1 in peptide-conjugated gels
Procedure: Total cellular RNA of the gel samples was isolated using TRIzol (Invitrogen). 250 ng of the extracted purified RNA was reverse transcribed to cDNA by SuperScript II Reverse Transcriptase (Invitrogen) with the random primers. The obtained cDNA was subjected to real time quantitative polymerase chain reaction (RT-qPCR) amplification with appropriate gene specific primers. RT-qPCR was performed to analyze the differential expression of CSC markers CD44 (4T1 and MCF7), CD24 (4T1), ABCG2 (4T1 and MCF7), and SCA1 (4T1) genes with SYBR green RealMasterMix (Eppendorf, Hamburg, Germany) using Bio-Rad iCycler PCR system (Bio-Rad, Hercules, Calif.). The expression level of GAPDH gene was used as an internal control. The primers for real time PCR were designed by Primer 3 software. The following forward and reverse primers synthesized by Integrated DNA technologies (Coralville, Iowa) were used: mouse GAPDH: forward 5′-CATGGCCTTCCGTGTTCCTA-3′ (SEQ ID NO: 1) and reverse 5′-CCTGCTTCACCACCTTCTTGA-3′ (SEQ ID NO: 2); mouse CD44: forward 5′-GAATGTAACCTGCCGCTACG-3′ (SEQ ID NO: 3) and reverse 5′-GGA GGT GTT GGA CGT GAC-3′ (SEQ ID NO: 4); mouse CD24: forward 5′-CTTCTGGCACTGCTCCTACC-3′ (SEQ ID NO: 5) and reverse 5′-GAGAGAGAGCCAGGAGACCA-3′ (SEQ ID NO: 6); mouse ABCG2: forward 5′-AGCAGCAAGGAAAGATCCAA-3′ (SEQ ID NO: 7) and reverse 5′-GGAATACCGAGGCTGATGAA-3′ (SEQ ID NO: 8); mouse SCA1: forward 5′-TGG ACA CTT CTC ACA CTA-3′ (SEQ ID NO: 9) and reverse 5′-CAGAGCAAGAGGGTCTGCAGGAG-3′ (SEQ ID NO: 10); human GAPDH forward 5′-GAGTCAACGGATTTGGTCGT-3′ (SEQ ID NO: 11) and reverse 5′-TTGATTTTGGAGGGATCTCG-3′ (SEQ ID NO: 12); human CD44 forward 5′-GGCTTTCAATAGCACCTTGC-3′ (SEQ ID NO: 13) and reverse 5′-ACACCCCTGTGTTGTTTGCT-3′ (SEQ ID NO: 14); human ABCG2 forward 5′-CACCTTATTGGCCTCAGGAA-3′ (SEQ ID NO: 15) and reverse 5′-CCTGCTTGGAAGGCTCTATG-3′ (SEQ ID NO: 16). The relative gene expression levels were quantified by the 2^-ddCT method as described. The relative gene expressions were expressed as fold difference compared with that at time zero.
Total cellular RNA of the gel samples was isolated using TRIzol (Invitrogen). 250 ng of the extracted purified RNA was reverse transcribed to cDNA by SuperScript II Reverse Transcriptase (Invitrogen) with the random primers. The obtained cDNA was subjected to real time quantitative polymerase chain reaction (RT-qPCR) amplification with the appropriate gene specific primers. RT-qPCR was performed to analyze the differential expression of CSC markers CD44, CD24, ABCG2, and SCA1 genes with SYBR green RealMasterMix (Eppendorf, Hamburg, Germany) using Bio-Rad iCycler PCR system (Bio-Rad, Hercules, Calif.). The expression level of GAPDH gene was used as an internal control. The primers for real time PCR were designed by Primer 3 software. The forward and reverse primer sequences, listed in the table below, were synthesized by Integrated DNA technologies (Coralville, Iowa). The relative gene expression levels were quantified by the 2^(−ΔΔCT) method. Briefly, ΔCT was calculated as ΔCT=CT^target gene−CT^GAPDH. ΔΔCT of the target gene was calculated as ΔΔCT=ΔCT^experimental group−ΔCT^reference group. The reference was the first time point (right after cells were encapsulated in the gel). The relative gene expression (fold-change compared to the reference time point) was calculated as 2^(−ΔΔCT).

4T1 cells [3] = assay: Flow cytometry of CD44+/CD24- cells isolated from the gel; assay type: cell-based, mouse; settings: 4T1, 9 days after encapsulation in 5 kPa gel with or without conjugated peptide (about 6% without gel)
Procedure: Cells encapsulated in the gel were fixed with 4% paraformaldehyde for 30 min followed by washing with PBS. Next, the gel was incubated in oxidative degradation solution (0.1M CoCl in 20% hydrogen peroxide). After the gel was degraded, cells were washed three times with cold PBS containing 5% BSA. MCF7 cells were incubated with phycoerythrin (PE) mouse anti-human CD24 and fluorescein isothiocyanate (FITC) mouse anti-human CD44 (BD Biosciences, Franklin Lakes, N.J.), and 4T1 cells were incubated with PE-anti-mouse CD24 and FITC-anti-mouse CD44 (eBioscience, San Diego, Calif.) in 100 μl PBS with 5% BSA for 45 min on ice in the dark. Cells were then washed with cold PBS with 5% BSA three times and analyzed by a flow cytometer (FC500, Beckman Coulter, Brea, Calif.). Flow cytometry was done multiple times on each sample to ascertain reproducibility of the results.

4T1 cells [4] = assay: Tumor growth in vivo of cell encapsulated gels implanted subcutaneously; parameters: species or system syngeneic Balb/C mice; settings: 4T1 cells in dPEGDA gel, subcutaneous, 4 weeks after inoculation
Procedure: To test tumor formation ability of 4T1 cells in the hydrogel, the cell encapsulated gels were cultured in vitro in the stem cell medium for 9 days as described above. After tumorsphere formation, gel pieces containing 1×10^5 tumorsphere cells were implanted subcutaneously in syngeneic Balb/C mice (6 mice/group). Groups included 4T1 tumorsphere cells, grown on ultra-low attachment plates, and injected subcutaneously (control group), degradable version of the PEGDA gel (dPEGDA) without tumor cells (control group), 4T1 cells encapsulated in the dPEGDA and cultured in vitro for 9 days prior to implantation, and 4T1 cells encapsulated in CD44BP-conjugated dPEGDA gel and cultured in vitro for 9 days prior to implantation. When tumors became measurable, tumor size and growth rate were measured and calculated. Mice were euthanized when tumor volume reached above 1000 mm^3 or 4 weeks after inoculation.

[5] = 4T1 in peptide-conjugated gel, 3 days
[6] = 4T1 in peptide-conjugated gel, 9 days

| Substance | tumorsphere formation [1] | cell number density compared with the gel without peptide [1] | size of cell aggregates / spheres ([1]; 4T1 in peptide-conjugated gels) | CD44 mRNA marker expression (4T1 cells [2]; 9 days) | expression of integrin αV (4T1 cells [2]; 4T1 in peptide-conjugated gel) | expression of integrin β3 (4T1 cells [2]; 4T1 in peptide-conjugated gel) | expression of E-Cadherin (4T1 cells [2]; [5]) | expression of N-Cadherin (4T1 cells [2]; [5]) | expression of E-Cadherin (4T1 cells [2]; [6]) | EGFR mRNA marker expression (4T1 cells [2]; 9 days) | percentage of CD44+/CD24− cells (4T1 cells [3]) | ABCG2 mRNA marker expression (4T1 cells [2]; 9 days) | CD24 mRNA marker expression (4T1 cells [2]; 9 days) | SCA1 mRNA marker expression (4T1 cells [2]; 9 days) | tumorsphere formation ([1]; listed as CD44BP) | cell number density compared with the gel without peptide ([1]; listed as CD44BP) | CD44 mRNA marker expression (4T1 cells [2]; 9 days, listed as CD44BP) | tumor formation in vivo (4T1 cells [4]) | tumor formation in vivo (4T1 cells [4]; listed as CD44BP) |
| --- | --- | --- | --- | --- | --- | --- | --- | --- | --- | --- | --- | --- | --- | --- | --- | --- | --- | --- | --- |
| WQPPRARI [FHBP] | increased; also recorded: enhanced | higher cell number | larger spheres | significantly higher | reduced | reduced | decreased | increased | much higher than that in other groups | increased | about 21% | – | – | – | – | – | – | – | – |
| VLFGFLKIYSRIN [conj s-CD44BP, reference compound] | no significant effect | lower | – | high expressions | – | – | – | – | – | – | – | high expressions | low expression | high expressions | – | – | – | – | – |
| RLVSYNGIIFFLK [conj CD44BP] (RLVSYNGIIFFLK-NH2; also: conjugated to PEGDA gel, site not given here) | completely abolished sphere formation | strongest effect on cell density | – | decreased expressions | reduced | reduced | – | – | low expressions | decreased | 6.5% | decreased expressions | increased expression | decreased expressions | inhibits tumorsphere formation; also recorded: completely abolished | reduced cell number | decreased | did not form a visible tumor | Tumor growth was not observed |
| GRGDS [IBP] | completely abolished | reduced cell number | – | decreased | significantly increased | significantly increased | – | – | low expressions | decreased | 5.4% | – | – | – | – | – | – | – | – |
| RLVSYNGIIFFLK [dis CD44BP, CD44BP dissolved in the gel and in the culture medium] | did not inhibit sphere formation | lower | – | high expressions | – | – | – | – | – | – | – | high expressions | low expression | high expressions | – | – | – | – | – |
